# From PubChem BioAssay AID2060620 (Molecular Pharmacology Branch, DTP, NCI, 2025)
# System: 328373-195-R-J1-PDC complex spheroids, viability % test/control
# Test: Anticancer human tumor 328373-195-R-J1-PDC patient-derived head and neck squamous carcinoma cell line growth inhibition [CLK]
# Conditions: for IC50: curve of first compound; for viability, T/C: stronger effect = lower value
# Source text: A high-throughput screen of multi-cell type tumor spheroids was designed to identify active combinations of […] and targeted small molecules. Complex spheroids include a stromal component modeled by human endothelial cells (HUVEC) and fibroblasts modeled by human mesenchymal stem cells (MSCs). The concentration ranges selected for each drug and investigational agent were based upon clinically achievable concentrations if the clinical Cmax of the agent was known.
# Compounds. The drugs and investigational agents: cirtuvivint (SM08502; NSC835563), CC-671 (NSC850746), vemurafenib (NSC761431), tapotoclax (NSC804041), sotorasib (NSC818433), adagrasib (NSC831453), MRTX-1133 (NSC836407), BAY2416964 (NSC825713), copanlisib (NSC816437), inavolisib (NSC800729), abemaciclib (NSC768073), osimertinib (NSC779217), entinostat (NSC756642), eltanexor (KPT-8602, NSC794443), venetoclax (NSC766270), ceralasertib (NSC777638), bortezomib (NSC756655), olaparib (NSC753686), talazoparib (NSC767125), alisertib (NSC759677), peposertib (NSC802822), gemcitabine (NSC613327), 5-fluorouracil (NSC19893), SN-38 (NSC673596), oxaliplatin (NSC266046), paclitaxel (NSC125973), and doxorubicin (NSC123127), were obtained from the National Cancer Institute (NCI) Developmental Therapeutics Program Chemical Repository. The FDA-approved anticancer drug set is available from the Developmental Therapeutics Program at https://dtp.cancer.gov/organization/dscb/obtaining/available plates.htm. […] The stock solutions were prepared in dimethyl sulfoxide (DMSO, Sigma-Aldrich, St. Louis, MO, cat. D2650), except for the platinum complexes which were prepared in saline (Quality Biological, Gaithersburg, MD, cat. 114-055-101), at 800-fold the tested concentration and stored at -70 degrees C prior to their use. All drugs and investigational agents were tested over a range starting from a high concentration at or near the clinical Cmax and decreasing in half-log increments. If the clinical Cmax for an agent had not been determined, the highest concentration tested was 10 microM.
# Cell Culture. All cells were maintained in an incubator at 37 degrees C and 5% CO2 with 95% humidity. The PDC lines were cultured according to standard operating procedures established by the NCI PDMR. Briefly, all PDCs were thawed and cultured in Matrigel-coated flasks prepared with a working solution of 1X Ham's F-12 nutrient mix, without supplementation (Invitrogen, Waltham, MA, cat. 11765054), 100 U/mL penicillin-streptomycin (Invitrogen, cat. 15140122), and 2.5% Matrigel (Corning Inc., Corning, NY, cat. 354248) for the first three passages. The 947758-054-R-J2-PDC line was cultured in 6B/Colon 1A media, which includes advanced DMEM/F-12 (Thermo Fisher Scientific, cat. 12634028), 10 mM HEPES (Thermo Fisher Scientific, cat. 15630080), 1X GlutaMAX supplement (Thermo Fisher Scientific, cat. 35050061), 0.1 mg/mL primocin (InvivoGen, cat. ant-pm-2), 10% defined fetal bovine serum, heat inactivated (HyClone Laboratories Inc., cat. SH30070.03HI), 1.25 mM N-Acetyl-L-cysteine (Sigma-Aldrich, cat. A9165), 10 mM nicotinamide (Sigma-Aldrich, cat. N0636), 1X B-27 supplement (Thermo Fisher Scientific, cat. 17504044), 1X N-2 supplement (Thermo Fisher Scientific, cat. 17502048), and 10 microM Y-27632 dihydrochloride (Tocris Bioscience, cat. 1254). The 876862-298-R-J1-PDC was cultured in 6E media, which includes all 6B/Colon 1A media components plus 50% L-WRN conditioned media (ATCC, cat. CRL-3276), 50 ng/mL recombinant human EGF recombinant protein (hEGF; Thermo Fisher Scientific, cat. PHG0311), 10 ng/mL recombinant human fibroblast growth factor 10 (hGFG-10; PeproTech, cat. 100-26), 1 ng/mL recombinant human fibroblast growth factor 2 (hFGF-2; PeproTech, cat. 100-18B), and 1 µM prostaglandin E2 (PGE2; Tocris, cat. 2296). The 227483-062-R1-J1-PDC line was cultured in Panc media, containing all 6E components except hFGF-2, with the addition of 500 nM SB-431542 (Selleckchem, cat. S1067) and 10 nM gastrin (Tocris, cat. 3006). […]
# [1] = second compound 0.0316 µM, first compound 0.0316 µM
# [2] = second compound 0.0316 µM, first compound 0.1 µM
# [3] = second compound 0.0316 µM, first compound 0.316 µM
# [4] = second compound 0.0316 µM, first compound 1 µM
# [5] = second compound 0.0316 µM, first compound 3.16 µM
# [6] = second compound 0.0316 µM, first compound 10 µM
# [7] = second compound 0.1 µM, first compound 0.0316 µM
# [8] = second compound 0.1 µM, first compound 0.1 µM
# [9] = second compound 0.1 µM, first compound 0.316 µM
# [10] = second compound 0.1 µM, first compound 1 µM
# [11] = second compound 0.1 µM, first compound 3.16 µM
# [12] = second compound 0.1 µM, first compound 10 µM
# [13] = second compound 0.316 µM, first compound 0.0316 µM
# [14] = second compound 0.316 µM, first compound 0.1 µM
# [15] = second compound 0.316 µM, first compound 0.316 µM
# [16] = second compound 0.316 µM, first compound 1 µM
# [17] = second compound 0.316 µM, first compound 3.16 µM
# [18] = second compound 0.316 µM, first compound 10 µM
# [19] = second compound 1 µM, first compound 0.0316 µM
# [20] = second compound 1 µM, first compound 0.1 µM
# [21] = second compound 1 µM, first compound 0.316 µM
# [22] = second compound 1 µM, first compound 1 µM
# [23] = second compound 1 µM, first compound 3.16 µM
# [24] = second compound 1 µM, first compound 10 µM
# [25] = second compound 3.16 µM, first compound 0.0316 µM
# [26] = second compound 3.16 µM, first compound 0.1 µM
# [27] = second compound 3.16 µM, first compound 0.316 µM
# [28] = second compound 3.16 µM, first compound 1 µM
# [29] = second compound 3.16 µM, first compound 3.16 µM
# [30] = second compound 3.16 µM, first compound 10 µM
# [31] = second compound 10 µM, first compound 0.0316 µM
# [32] = second compound 10 µM, first compound 0.1 µM
# [33] = second compound 10 µM, first compound 0.316 µM
# [34] = second compound 10 µM, first compound 1 µM
# [35] = second compound 10 µM, first compound 3.16 µM
# [36] = second compound 10 µM, first compound 10 µM
# 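Also: spheroids exposed to the agents for 7 days.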
compound,measurement,setting,value
CCCS(=O)(=O)Nc1ccc(F)c(C(=O)c2c[nH]c3ncc(-c4ccc(Cl)cc4)cc23)c1F + CN1CCN(c2cc(C(=O)Nc3cc4cc(-c5cnn(C)c5)ccc4cn3)ccn2)CC1,IC50,second compound 0.0316 µM,> 10000 nM
same,IC50,second compound 0.1 µM,> 10000 nM
same,IC50,second compound 0.316 µM,< 31.6 nM
same,IC50,second compound 1 µM,< 31.6 nM
same,IC50,second compound 3.16 µM,< 31.6 nM
same,IC50,second compound 10 µM,< 31.6 nM
same,"viability, T/C",[1],102%
same,"viability, T/C",[2],91.4%
same,"viability, T/C",[3],109%
same,"viability, T/C",[4],100%
same,"viability, T/C",[5],101%
same,"viability, T/C",[6],81.6%
same,"viability, T/C",[7],78.8%
same,"viability, T/C",[8],82.2%
same,"viability, T/C",[9],83.7%
same,"viability, T/C",[10],86.6%
same,"viability, T/C",[11],96.5%
same,"viability, T/C",[12],81.7%
same,"viability, T/C",[13],35.8%
same,"viability, T/C",[14],38.5%
same,"viability, T/C",[15],34.8%
same,"viability, T/C",[16],40%
same,"viability, T/C",[17],34.7%
same,"viability, T/C",[18],28.9%
same,"viability, T/C",[19],2.19%
same,"viability, T/C",[20],1.09%
same,"viability, T/C",[21],2.63%
same,"viability, T/C",[22],2.9%
same,"viability, T/C",[23],1.71%
same,"viability, T/C",[24],0.31%
same,"viability, T/C",[25],0.65%
same,"viability, T/C",[26],1.41%
same,"viability, T/C",[27],2.96%
same,"viability, T/C",[28],1.01%
same,"viability, T/C",[29],1.06%
same,"viability, T/C",[30],0.14%
same,"viability, T/C",[31],1.51%
same,"viability, T/C",[32],3.41%
same,"viability, T/C",[33],0.81%
same,"viability, T/C",[34],2.54%
same,"viability, T/C",[35],2.37%
same,"viability, T/C",[36],0.63%
COC1C=CCC(C)C(C)S(=O)(=O)NC(=O)c2ccc3c(c2)N(CC2CCC21)CC1(CCCc2cc(Cl)ccc21)CO3 (centres undefined) + CN1CCN(c2cc(C(=O)Nc3cc4cc(-c5cnn(C)c5)ccc4cn3)ccn2)CC1,IC50,second compound 0.0316 µM,9330 nM
same,IC50,second compound 0.1 µM,7920 nM
same,IC50,second compound 0.316 µM,< 31.6 nM
same,IC50,second compound 1 µM,< 31.6 nM
same,IC50,second compound 3.16 µM,< 31.6 nM
same,IC50,second compound 10 µM,< 31.6 nM
same,"viability, T/C",[1],96.7%
same,"viability, T/C",[2],99.5%
same,"viability, T/C",[3],108%
same,"viability, T/C",[4],105%
same,"viability, T/C",[5],81.2%
same,"viability, T/C",[6],48%
same,"viability, T/C",[7],77.3%
same,"viability, T/C",[8],87%
same,"viability, T/C",[9],82.2%
same,"viability, T/C",[10],80.7%
same,"viability, T/C",[11],73.5%
same,"viability, T/C",[12],44%
same,"viability, T/C",[13],36%
same,"viability, T/C",[14],35.3%
same,"viability, T/C",[15],37%
same,"viability, T/C",[16],32.4%
same,"viability, T/C",[17],29.3%
same,"viability, T/C",[18],13.3%
same,"viability, T/C",[19],0.21%
same,"viability, T/C",[20],2.53%
same,"viability, T/C",[21],2.21%
same,"viability, T/C",[22],1.57%
same,"viability, T/C",[23],0.27%
same,"viability, T/C",[24],1.2%
same,"viability, T/C",[25],2.24%
same,"viability, T/C",[26],3.21%
same,"viability, T/C",[27],2.04%
same,"viability, T/C",[28],1.78%
same,"viability, T/C",[29],1.66%
same,"viability, T/C",[30],1.86%
same,"viability, T/C",[31],4.14%
same,"viability, T/C",[32],0.77%
same,"viability, T/C",[33],1.41%
same,"viability, T/C",[34],2.69%
same,"viability, T/C",[35],1.19%
same,"viability, T/C",[36],0.32%
